# Source: patent US20100285146A1, “PEPTIDES AND METHODS FOR THE TREATMENT OF SYSTEMIC LUPUS ERYTHEMATOSUS” (priority 2007, published 2010)
# No end group written: not given here.
# What was measured:
# [1] = tested on: C72 murine anti-DNA antibody; experiment: Anti-peptide direct binding ELISA with C72; conditions: for C72 Binding: direct binding ELISA, footnote: O.D. after one (1) hour
# Procedure: (§1) Wells were coated with 10 μg/ml of the peptides, blocked with 1% BSA (bovine serum albumin) in PBS (pH 7.4), reacted with appropriately diluted plasma or monoclonal antibodies, incubated with anti-human or anti-mouse immunoglobulin enzyme conjugated to alkaline phosphatase and detected by addition of substrate (Sigma 100 Phosphatase Substrate Tablets) and color development using an Organon Teknika Microwell System spectrometer at wavelength of 405 nm.
# (§2) The interaction of the C72 murine anti-DNA antibody with laminin peptides was analyzed by ELISA as described above. The C72 conditioned medium was diluted in PBS in various dilutions.
# (§3) The peptides of the present invention were tested for their ability to bind directly with C72 murine anti-DNA antibodies and B3 human anti-DNA antibodies according to the method described hereinabove.
# [2] = tested on: B3 human anti-DNA antibodies; experiment: Anti-peptide direct binding ELISA with B3; conditions: for B3 Binding: direct binding ELISA, footnote: O.D. after two (2) hours
# Procedure: as §1
# (§4) The human monoclonal anti-DNA antibodies DIL 6 and B3 were derived from lupus patients by the hybridoma technique. […] In FIGS. 3 and 4, the peptides are referred to as denoted above or as follows; AS30 is R27, AS19 is R35, AS35 is R26, AS17 is R28 and AS6 is R18.
# as §3
# [3] = tested on: C72 murine anti-DNA antibody; experiment: Competitive inhibition of the binding of C72 to 5200; conditions: after incubation of C72 with the inhibiting agent
# Procedure: The binding of C72 to 5200 was tested before and after incubation with 5200, R38, R18, Heparin, DNA and DNase. […] The percent inhibition is the percent reduction of the O.D. after incubation with the inhibiting agent.
# C72 anti-DNA antibody = experiment: Competitive inhibition of C72 binding to R38 (5100); design: species or system murine; conditions: concentration of competitive inhibitor giving 50% inhibition, ELISA
# Description: A competitive inhibition study compared how each of the peptides competes with R38 (5100) for binding to the C72 anti-DNA antibody. Conducted according to the methods described hereinabove, the results of the study are disclosed in Table 4 below and are further elucidated by reference to FIG. 10.
# [4] = tested on: urine antibodies of lupus patients; experiment: Urine anti-peptide antibody ELISA in patients; assay type: binding, human; conditions: Example 5
# Procedure: as §1
# Activity of the disease was evaluated also by accepted clinical and serological parameters (Lockshin M. D. et al. Am. J. Med (1984) 77 893-898) and their correlation with anti-R38 levels was compared. 103 urine samples of 37 SLE patients were tested for anti-R38 activity by ELISA as described above. 23 of the samples were from patients without renal disease and 80 samples from patients with renal disease. A further 12 samples from patients with renal disease not related to SLE were also included.
# MRL/1pr/1pr mice = experiment: Clinical course of murine SLE (survival, renal histology); assay type: in vivo; conditions: for renal histology by light microscopy: two mice sacrificed after 5 months, controls severe diffuse proliferative glomerulonephritis
# Procedure: To test whether R38 peptides can affect the course of SLE we have tested their effect on MRL/1pr/1pr mice disease. 60 μg of 5200 (R38′ alone or in peptide combinations, 30 μg of each) in 0.1 ml PBS, was injected i.p. to 6 week old female MRL/1pr/1pr mice once a week for 16 weeks and the mice were evaluated for survival (FIG. 8), and for renal histology.
# 50 μg of 5100 (R38) or 5300 (human R38) in 0.1 ml PBS, was injected i.p. to 6 week old MRL/1pr/1pr mice three times a week and the mice were evaluated for survival (FIG. 9), and for renal histology. Control mice received 0.1 ml phosphate buffer solution. Each test and control group contained 12-15 mice.
# The survival of MRL/1pr/1pr mice treated with 5100, 5200 or 5300 was compared to that of PBS treated mice. […] In FIGS. 8 and 9 the time in days shown on the x axis relates to the age of the mice. Two mice in each group were sacrificed after 5 months and their kidneys evaluated by light microscopy.
# C72 antibody = experiment: Affinity absorption on R38 column, C72 sample; assay type: binding, mouse
# Procedure: (§5) The R38 peptide was dissolved in the coupling buffer (0.2M NaHCO3, 0.5M NaCl, pH 8.3) in a concentration of 1 mg/ml in 5 ml coupling buffer. A 5 ml N-hydroxysuccinimide (NHS)-activated Sepharose™ High Performance Column (Pharmacia 17-0717-01) is used. The isopropanol in the column was washed out from the column with 30 ml of cold (4° C.) 1 mM HCl and 5 ml of the peptide solution was then injected onto the column with a syringe (2.5 ml/minute). The column was sealed and stood for 30 minutes at room temperature. The column was then washed with 30 ml Buffer A (0.5 M ethanolamine, 0.5 M NaCl, pH 8.3) and 30 ml Buffer B (0.5 M acetate, 0.5 M NaCl, pH 4) consecutively three times, and then with neutral pH buffer (0.05 M Na2HPO4 and 0.1% NaN3).
# The column was washed with 15 ml PBS (phosphate buffered saline), followed by 15 ml elution buffer (0.1 M glycine HCl) and then 50 ml PBS. The C72 antibody or the patients' plasma samples were filtered through a 0.45 microm filter. The samples were applied onto the column by a fitted syringe at a rate of 2.5 ml/min. The column was then washed with 5 ml PBS and the flow-through was applied to the column again. […]
# (§6) In the instant example, the mouse C72 and the SLE patients' plasma were applied to the R38 column. Their anti-R38 binding was evaluated by ELISA in the original samples and in the flow-through of the column.
# [5] = tested on: anti-R38 antibodies in human plasma; experiment: Affinity absorption on R38 column, human plasma samples; assay type: binding; conditions: for Binding to R38 (O.D.), Original sample: before column; for Binding to R38 (O.D.), After immunoabsorption: flow-through of R38 column
# Procedure: as §5
# The column was washed with 15 ml PBS (phosphate buffered saline), followed by 15 ml elution buffer (0.1 M glycine HCl) and then 50 ml PBS. The C72 antibody or the patients' plasma samples were filtered through a 0.45 microm filter. The samples were applied onto the column by a fitted syringe at a rate of 2.5 ml/min. The column was then washed with 5 ml PBS and the flow-through was applied to the column again. The binding of the samples (original and flow-through) to R38 was tested by the anti-R38 ELISA test.
# as §6
# [6] = tested on: urine antibodies of lupus patients; experiment: Urine anti-peptide antibody ELISA in patients; assay type: binding, human
# [7] = tested on: human monoclonal anti-DNA antibody DIL 6; experiment: Anti-peptide direct binding ELISA with DIL6
# Procedure: as §1, §4
# [8] = tested on: anti-HEL Hy5 control murine antibody; experiment: Direct binding ELISA with control murine antibody; conditions: data not shown
# Procedure: as §1, §2
# [9] = tested on: MRL/1pr/1pr urine antibodies; experiment: Binding of murine urinary immunoglobulins, MRL/1pr/1pr urine; design: species or system mice
# Procedure: as §1
# (§7) Thus, pooled urine from at least 5 mice (either MRL/1pr/1pr or control mice, e.g. BALB/c) was added to wells coated with R38′ (5200), R18 or DNA as described above and bound 5200 assayed by ELISA.
# (§8) Each group is comprised of pooled urine.
# [10] = tested on: BALB/c urinary immunoglobulins; experiment: Binding of murine urinary immunoglobulins, BALB/c control urine; conditions: pooled urine of BALB/c control mice
# Procedure: as §1, §7, §8
# [11] = target: 5101 peptide (Res. 1-16 of 5100) (mouse); experiment: direct binding ELISA, peptide-coated wells, read after two hours
# [12] = target: 5102 peptide (Res. 6-17 of 5100) (mouse); experiment: as above
# [13] = target: 5200 peptide (R38′), mouse R38 analog; experiment: as above
# [14] = target: 5300 peptide, human R38 (human); experiment: as above
# [15] = target: R38 peptide (5100), mouse R38 (mouse); experiment: as above
# Sequence of 5300 peptide, human R38 (human) (peptide, as listed by the source): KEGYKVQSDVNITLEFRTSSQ
# Sequence of 5200 peptide (R38′), mouse R38 analog (peptide, as listed by the source): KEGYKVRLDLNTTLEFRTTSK
compound,measurement,setting,value
KEGYKVRLDLNITLEFRTTSK [Peptide 5100],C72 Binding,[1],2.57 O.D.
same,B3 Binding,[2],0.9 O.D.
same,inhibition of the binding of C72 to 5200 (FIG. 2),[3],inhibition
same,50% Inhibition of C72 binding to mouse R38 (5100),C72 anti-DNA antibody,10 µg/mL
same,Urine anti-R38 O.D. (Mean + S.E.),"[4]; SLE absent, renal disease present, 12 samples",0.07 ± 0.01 O.D.
same,Urine anti-R38 O.D. (Mean + S.E.),"[4]; SLE present, renal disease absent, 23 samples",0.035 ± 0.003 O.D.
same,Urine anti-R38 O.D. (Mean + S.E.),"[4]; SLE present, renal disease present, 80 samples, p < 0.001",0.229 ± 0.03 O.D.
same,survival versus PBS control mice (FIG. 9),"MRL/1pr/1pr mice; 50 μg i.p. three times a week, 6 week old mice",significantly higher
same,renal histology by light microscopy,MRL/1pr/1pr mice; 50 μg i.p. three times a week,mild proliferative changes with no crescents and no sclerosis
same,"Binding to R38 (O.D.), Original sample","C72 antibody; sample C72, before column",1.96 O.D.
same,"Binding to R38 (O.D.), After immunoabsorption","C72 antibody; sample C72, flow-through of R38 column",0.02 O.D.
same,"Binding to R38 (O.D.), Original sample",[5]; Healthy donor's plasma,0.26 O.D.
same,"Binding to R38 (O.D.), After immunoabsorption",[5]; Healthy donor's plasma,0.06 O.D.
same,"Binding to R38 (O.D.), Original sample",[5]; SLE patient 1 plasma,1.5 O.D.
same,"Binding to R38 (O.D.), After immunoabsorption",[5]; SLE patient 1 plasma,0.6 O.D.
same,"Binding to R38 (O.D.), Original sample",[5]; SLE patient 2 plasma,2.3 O.D.
same,"Binding to R38 (O.D.), After immunoabsorption",[5]; SLE patient 2 plasma,1.6 O.D.
same,Urine anti-5100 O.D. (Mean + S.E.),"[6]; Example 7, renal disease absent, 6 samples",0.058 ± 0.006 O.D.
same,Urine anti-5100 O.D. (Mean + S.E.),"[6]; Example 7, renal disease present, 39 samples, p < 0.03",0.376 ± 0.05 O.D.
CC(C)C[C@H](NC(=O)[C@H](CC(=O)O)NC(=O)[C@H](CC(C)C)NC(=O)[C@H](CCCNC(=N)N)NC(=O)[C@@H](NC(=O)[C@H](CCCCN)NC(=O)[C@H](Cc1ccc(O)cc1)NC(=O)CNC(=O)[C@H](CCC(=O)O)NC(=O)[C@@H](N)CCCCN)C(C)C)C(=O)N[C@@H](CC(N)=O)C(=O)N[C@H](C(=O)N[C@H](C(=O)N[C@@H](CC(C)C)C(=O)N[C@@H](CCC(=O)O)C(=O)N[C@@H](Cc1ccccc1)C(=O)N[C@@H](CCCNC(=N)N)C(=O)N[C@H](C(=O)N[C@H](C(=O)N[C@@H](CO)C(=O)N[C@@H](CCCCN)C(=O)O)[C@@H](C)O)[C@@H](C)O)[C@@H](C)O)[C@@H](C)O (stereo in doubt) [Peptide 5200],binding of C72 murine anti-DNA antibody to laminin peptides (FIG. 1),"[1]; ELISA, C72 conditioned medium in various dilutions",binding
same,C72 Binding,[1],1.8 O.D.
same,binding of B3 to laminin peptides (FIGS. 3 and 4),[2],bind
same,B3 Binding,[2],0.25 O.D.
same,binding of DIL 6 to laminin peptides (FIGS. 3 and 4),[7],bind
same,binding of control antibody anti-HEL Hy5,[8],did not bind
same,inhibition of the binding of C72 to 5200 (FIG. 2),[3],inhibition
same,50% Inhibition of C72 binding to mouse R38 (5100),C72 anti-DNA antibody,10 µg/mL
same,interaction of MRL/1pr/1pr urine antibodies with peptide,[9]; direct binding ELISA,specific binding
same,Binding of murine urinary immunoglobulins to antigen,[9]; pooled urine of MRL/1pr/1pr mice,0.26(*) O.D. at 405 nm
same,Binding of murine urinary immunoglobulins to antigen,[10],U.D.
same,survival versus PBS control mice (FIG. 8),"MRL/1pr/1pr mice; 60 μg i.p. once a week for 16 weeks, 6 week old female mice",significantly higher
same,renal histology by light microscopy,MRL/1pr/1pr mice; 60 μg i.p. once a week,mild proliferative changes with no crescents and no sclerosis
same,Urine anti-5200 O.D. (Mean + S.E.),"[6]; Example 6, renal disease absent, 46 samples",0.05 ± 0.005 O.D.
same,Urine anti-5200 O.D. (Mean + S.E.),"[6]; Example 6, renal disease present, 132 samples, p < 0.001",0.335 ± 0.035 O.D.
same,Urine anti-5200 O.D. (Mean + S.E.),"[6]; Example 8, renal disease absent, 6 samples",0.052 ± 0.03 O.D.
same,Urine anti-5200 O.D. (Mean + S.E.),"[6]; Example 8, renal disease present, 46 samples",0.431 ± 0.09 O.D.
B3 human monoclonal anti-DNA antibody,O.D. in a direct binding ELISA,[11],0.1 O.D.
same,O.D. in a direct binding ELISA,[12],0.02 O.D.
same,O.D. in a direct binding ELISA,[13],0.25 O.D.
same,O.D. in a direct binding ELISA,[14],0.03 O.D.
same,O.D. in a direct binding ELISA,[15],0.9 O.D.
